# Source: PMC10141580, “Cyclic Dichalcogenides Extend the Reach of Bioreductive Prodrugs to Harness Thiol/Disulfide Oxidoreductases: Applications to seco-Duocarmycins Targeting the Thioredoxin System” (ACS Central Science, 2023)
# Where “and” joins values, the source holds several entries; their conditions need not be identical. Identical values can stand only once. Like-named read-outs stand apart in the source and are kept apart here.
# Tested on: panel of 140 standard cancer cell lines
# Assay: ProliFiler-140 cancer cell line screen (CellTiterGlo, 72 h)
# Type: cell-based
# Protocol: Incubations were performed for 72 h before automated viability readout with CellTiterGlo (Figure 8).
# End of Figure S11 (part 5 of 5): ProliFiler-140 cancer cell line screening for cytotoxicity of the prodrugs.
# 8-data-point dose response curves from CellTiter-Glo® viability readout.
# ProliFiler-140 cell line panel part V
smiles,measurement,setting,value
COc1cc2cc(C(=O)N3C[C@@H](CCl)c4c3cc(OC(=O)N3CCN(C(=O)CCC(=O)N5CCN(C)CC5)[C@H]5CSSC[C@H]53)c3ccccc43)[nH]c2c(OC)c1OC [P-SS66C-CBI-TMI],Reductive Activation Index,786-O (Kidney),4.12
same,Reductive Activation Index,A172 (Brain),5.35
same,Reductive Activation Index,A375 (Skin),3.01
same,Reductive Activation Index,A427 (Lung),19 and 18.60
same,Reductive Activation Index,A498 (Kidney),3.19
same,Reductive Activation Index,A549 (Lung),25
same,Reductive Activation Index,AsPC-1 (Pancreas),8.2
same,Reductive Activation Index,BEN (Lung),27
same,Reductive Activation Index,BT-20 (Breast),9.1
same,IC50,"COV434, read-out: IC50 [M] (ProliFiler-140), COV434 (Ovary)",1.5e-08 M
same,Reductive Activation Index,Caki-1 (Kidney),5.18
same,Reductive Activation Index,Caki-2 (Kidney),5.62 and 5.6
same,Reductive Activation Index,Calu-6 (Lung),5.77
same,Reductive Activation Index,Colo 205 (Colon),8.8
same,Reductive Activation Index,DLD-1 (Colon),6.33 and 6.3
same,Reductive Activation Index,EFM-19 (Breast),3.1 and 3.08
same,Reductive Activation Index,EFM-192A (Breast),6.6
same,IC50,"EFM-192A, read-out: IC50 [M] (ProliFiler-140), EFM-192A (Breast)",2.7e-07 M
same,Reductive Activation Index,EFO-27 (Ovary),15
same,Reductive Activation Index,H4 (Brain),5.82
same,Reductive Activation Index,H460 (Lung),9.3
same,Reductive Activation Index,HCC202 (Breast),9.8
same,IC50,"HCC202, read-out: IC50 [M] (ProliFiler-140), HCC202 (Breast)",9.1e-08 M
same,Reductive Activation Index,HCC827 (Lung),15
same,Reductive Activation Index,HCC 1569 (Breast),28
same,Reductive Activation Index,HCT-15 (Colon),3.89
same,Reductive Activation Index,HEC-1-A (Endometrium),18
same,Reductive Activation Index,HEC-1-B (Endometrium),8.3
same,Reductive Activation Index,HT-29 (Colon),9.5
same,Reductive Activation Index,HeLa (Ovary),23.88
same,Reductive Activation Index,Hep3B2.1-7 (Liver),7.8
same,IC50,"Homo sapiens, 786-0, read-out: IC50 [M] (ProliFiler-140), 786-O (Kidney)",2.86e-08 M
same,IC50,"Homo sapiens, A 172, read-out: IC50 [M] (ProliFiler-140), A172 (Brain)",1.07e-07 M
same,IC50,"Homo sapiens, A498, read-out: IC50 [M] (ProliFiler-140), A498 (Kidney)",9.41e-08 M
same,IC50,"Homo sapiens, A549, read-out: IC50 [M] (ProliFiler-140), A549 (Lung)",3e-08 M
same,IC50,"Homo sapiens, A2058, read-out: IC50 [M] (ProliFiler-140), A2058 (Skin)",1.1e-08 M
same,IC50,"Homo sapiens, A2780, read-out: IC50 [M] (ProliFiler-140), A2780 (Ovary)",8.1e-09 M
same,IC50,"Homo sapiens, A-375, read-out: IC50 [M] (ProliFiler-140), A375 (Skin)",5.45e-08 M
same,IC50,"Homo sapiens, A-427, read-out: IC50 [M] (ProliFiler-140), A427 (Lung)",4.4e-08 M
same,IC50,"Homo sapiens, A-431, read-out: IC50 [M] (ProliFiler-140), A431 (Skin)",2.02e-08 M
same,IC50,"Homo sapiens, ASPC1, read-out: IC50 [M] (ProliFiler-140), AsPC-1 (Pancreas)",2.6e-07 M
same,IC50,"Homo sapiens, BT-20, read-out: IC50 [M] (ProliFiler-140), BT-20 (Breast)",1.2e-07 M
same,IC50,"Homo sapiens, BXPC-3, read-out: IC50 [M] (ProliFiler-140), BxPC-3 (Pancreas)",4.64e-08 M
same,IC50,"Homo sapiens, CAKI-1, Caki-1",6.3e-08 M
same,IC50,"Homo sapiens, CAKI-1, read-out: IC50 [M] (ProliFiler-140), Caki-1 (Kidney)",6.34e-08 M
same,IC50,"Homo sapiens, CAKI-2, read-out: IC50 [M] (ProliFiler-140), Caki-2 (Kidney)",2.69e-07 M
same,IC50,"Homo sapiens, COLO 205, Colo 205",8.6e-08 M
same,IC50,"Homo sapiens, COLO 205, read-out: IC50 [M] (ProliFiler-140), Colo 205 (Colon)",8.6e-08 M
same,IC50,"Homo sapiens, COR-L279, read-out: IC50 [M] (ProliFiler-140), COR-L279 (Lung)",7.2e-09 M
same,IC50,"Homo sapiens, Calu-6, read-out: IC50 [M] (ProliFiler-140), Calu-6 (Lung)",5.93e-08 M
same,IC50,"Homo sapiens, DLD-1, read-out: IC50 [M] (ProliFiler-140), DLD-1 (Colon)",1.25e-07 M
same,IC50,"Homo sapiens, DU-145, read-out: IC50 [M] (ProliFiler-140), DU-145 (Prostate)",1.6e-08 M
same,IC50,"Homo sapiens, DV-90, read-out: IC50 [M] (ProliFiler-140), DV90 (Lung)",1.2e-08 M
same,IC50,"Homo sapiens, Detroit 562, read-out: IC50 [M] (ProliFiler-140), Detroit562 (Head/Neck)",1.88e-08 M
same,IC50,"Homo sapiens, EFM-19, read-out: IC50 [M] (ProliFiler-140), EFM-19 (Breast)",3.1e-07 M
same,IC50,"Homo sapiens, EFO-27, read-out: IC50 [M] (ProliFiler-140), EFO-27 (Ovary)",6.2e-08 M
same,IC50,"Homo sapiens, EPLC-272H, read-out: IC50 [M] (ProliFiler-140), EPLC-272H (Lung)",4.57e-08 M
same,IC50,"Homo sapiens, HCC38, read-out: IC50 [M] (ProliFiler-140), HCC38 (Breast)",1.35e-08 M
same,IC50,"Homo sapiens, HCC827, read-out: IC50 [M] (ProliFiler-140), HCC827 (Lung)",9.1e-08 M
same,IC50,"Homo sapiens, HCC1569, read-out: IC50 [M] (ProliFiler-140), HCC 1569 (Breast)",3.6e-08 M
same,IC50,"Homo sapiens, HCT-15, HCT-15",1.4e-07 M
same,IC50,"Homo sapiens, HCT-15, read-out: IC50 [M] (ProliFiler-140), HCT-15 (Colon)",1.4e-07 M
same,IC50,"Homo sapiens, HCT-116, HCT116",3.2e-08 M
same,IC50,"Homo sapiens, HCT-116, read-out: IC50 [M] (ProliFiler-140), HCT116 (Colon)",3.23e-08 M
same,IC50,"Homo sapiens, HEC-1-A, read-out: IC50 [M] (ProliFiler-140), HEC-1-A (Endometrium)",1e-07 M
same,IC50,"Homo sapiens, HEC-1B, read-out: IC50 [M] (ProliFiler-140), HEC-1-B (Endometrium)",4e-07 M
same,IC50,"Homo sapiens, HL-60, HL-60",1.5e-08 M
same,IC50,"Homo sapiens, HL-60, read-out: IC50 [M] (ProliFiler-140), HL-60 (Blood)",1.5e-08 M
same,IC50,"Homo sapiens, HT-29, HT-29",1.1e-07 M
same,IC50,"Homo sapiens, HT-29, read-out: IC50 [M] (ProliFiler-140), HT-29 (Colon)",1.1e-07 M
same,IC50,"Homo sapiens, HT-1080, read-out: IC50 [M] (ProliFiler-140), HT-1080 (Fibrosarcoma)",2.13e-08 M
same,IC50,"Homo sapiens, HeLa, read-out: IC50 [M] (ProliFiler-140), HeLa (Ovary)",9.89e-09 M
same,IC50,"Homo sapiens, Hs746T, read-out: IC50 [M] (ProliFiler-140), Hs 746T (Stomach)",7.5e-08 M
same,IC50,"Homo sapiens, HuTu80, read-out: IC50 [M] (ProliFiler-140), Hutu 80 (Duodenum)",9.56e-09 M
same,IC50,"Homo sapiens, Huh-7, read-out: IC50 [M] (ProliFiler-140), HuH7 (Liver)",1e-07 M
same,IC50,"Homo sapiens, Ishikawa, read-out: IC50 [M] (ProliFiler-140), Ishikawa (Endometrium)",3.8e-09 M
same,IC50,"Homo sapiens, JIMT-1, read-out: IC50 [M] (ProliFiler-140), JIMT-1 (Breast)",1e-07 M
same,IC50,"Homo sapiens, JVM-3, read-out: IC50 [M] (ProliFiler-140), JVM-3 (Blood)",3.36e-09 M
same,IC50,"Homo sapiens, Jurkat, read-out: IC50 [M] (ProliFiler-140), Jurkat (Blood)",6.17e-09 M
same,IC50,"Homo sapiens, K562, read-out: IC50 [M] (ProliFiler-140), K562 (Blood)",1.3e-07 M
same,IC50,"Homo sapiens, KARPAS-299, KARPAS 299 (Blood), read-out: IC50 [M] (ProliFiler-140)",1.08e-07 M
same,IC50,"Homo sapiens, KATO III, read-out: IC50 [M] (ProliFiler-140), Kato III (Stomach)",2.2e-07 M
